In US8299077B2 (Roche Palo Alto LLC, priority 2009, dated 2012):

What was measured:
[1] = tested on: B cell receptor-mediated activation of B cells in human blood (CD69 expression); assay: Inhibition of B cell activation in whole blood measured by CD69 expression; assay type: cell-based; conditions: anti-IgM stimulation, 20 h, 50% decrease of CD69-positive cells that are also CD20-positive
Procedure, shortened: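 Healthy-donor human whole blood (heparin) preincubated with compound (nine-point, three-fold dilutions) for 30 min at 37 °C, then stimulated with goat F(ab′)2 anti-human IgM (50 μg/ml final) for 20 h. CD69-positive B cells (CD20 gating) measured by flow cytometry as percent positive; IC50 from dose-response fit.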

CCNCc1ccc(Nc2cc(-c3cccc(-n4ncc5cc(C(C)(C)C)cc(F)c5c4=O)c3CO)cn(C)c2=O)nc1 [Example 29, 6-tert-Butyl-2-{3-[5-(5-ethylaminomethyl-pyridin-2-ylamino)-1-methyl-6-oxo-1,6-dihydro-pyridin-3-yl]-2-hydroxymethyl-phenyl}-8-fluoro-2H-phthalazin-1-one]
melting point: 265 to 268 °C

CN1CCN(Cc2ccc(Nc3cc(-c4cccc(-n5ncc6cc(C(C)(C)C)cc(F)c6c5=O)c4CO)cn(C)c3=O)nc2)CC1 [Example I-15, 6-tert-butyl-8-fluoro-2-(2-hydroxymethyl-3-{1-methyl-5-[5-(4-methyl-piperazin-1-ylmethyl)-pyridin-2-ylamino]-6-oxo-1,6-dihydro-pyridin-3-yl}-phenyl)-2H-phthalazin-1-one]
IC50 [1]: 7 nM
melting point: 235 to 238 °C

CN1CC(Oc2ccc(Nc3cc(-c4cccc(-n5ncc6cc(C(C)(C)C)cc(F)c6c5=O)c4CO)cn(C)c3=O)nc2)C1 [Example 27, 6-tert-Butyl-8-fluoro-2-(2-hydroxymethyl-3-{1-methyl-5-[5-(1-methyl-azetidin-3-yloxy)-pyridin-2-ylamino]-6-oxo-1,6-dihydro-pyridin-3-yl}-phenyl)-2H-phthalazin-1-one]
melting point: > 300 °C

Cn1cc(-c2cccc(-n3ncc4cc(C(C)(C)C)cc(F)c4c3=O)c2CO)cc(Nc2ccc(C(C)(C)O)cn2)c1=O [Example 37, 6-tert-Butyl-8-fluoro-2-(2-hydroxymethyl-3-{5-[5-(1-hydroxy-1-methyl-ethyl)-pyridin-2-ylamino]-1-methyl-6-oxo-1,6-dihydro-pyridin-3-yl}-phenyl)-2H-phthalazin-1-one]
melting point: 200 to 205 °C

Cn1cc(-c2cccc(-n3ncc4cc(C(C)(C)C)cc(F)c4c3=O)c2CO)cc(Nc2ccc(C(C)(C)C(=O)O)cn2)c1=O [Example 18, 2-(6-{5-[3-(6-tert-butyl-8-fluoro-1-oxo-1H-phthalazin-2-yl)-2-hydroxymethyl-phenyl]-1-methyl-2-oxo-1,2-dihydro-pyridin-3-ylamino}-pyridin-3-yl)-2-methyl-propionic acid]
melting point: 218 to 220 °C

CCN1CCN(c2ccc(Nc3cc(-c4cccc(N5CCc6cc(C7CC7)cc(F)c6C5=O)c4CO)cn(C)c3=O)nc2)CC1 [Example I-12, 6-Cyclopropyl-2-(3-{5-[5-(4-ethyl-piperazin-1-yl)-pyridin-2-ylamino]-1-methyl-6-oxo-1,6-dihydro-pyridin-3-yl}-2-hydroxymethyl-phenyl)-8-fluoro-3,4-dihydro-2H-isoquinolin-1-one]
IC50 [1]: 43 nM

Cn1cc(-c2cccc(-n3ncc4cc(C(C)(C)C)cc(F)c4c3=O)c2CO)cc(Nc2ccc(CO)cn2)c1=O [Example I-26, 6-tert-Butyl-8-fluoro-2-{2-hydroxymethyl-3-[5-(5-hydroxymethyl-pyridin-2-ylamino)-1-methyl-6-oxo-1,6-dihydro-pyridin-3-yl]-phenyl}-2H-phthalazin-1-one]
IC50 [1]: 91 nM

CC(C)NCc1ccc(Nc2cc(-c3cccc(-n4ccc5cc(C6CC6)cc(F)c5c4=O)c3CO)cn(C)c2=O)nc1 [Example I-78, 6-Cyclopropyl-8-fluoro-2-(2-hydroxymethyl-3-{5-[5-(isopropylamino-methyl)-pyridin-2-ylamino]-1-methyl-6-oxo-1,6-dihydro-pyridin-3-yl}-phenyl)-2H-isoquinolin-1-one]
IC50 [1]: 20 nM

Cn1cc(-c2cccc(-n3ncc4cc(C(C)(C)C)cc(F)c4c3=O)c2CO)cc(Nc2ccc3c(n2)CCNC3)c1=O [Example I-41, 6-tert-Butyl-8-fluoro-2-{2-hydroxymethyl-3-[1-methyl-6-oxo-5-(5,6,7,8-tetrahydro-[1,6]naphthyridin-2-ylamino)-1,6-dihydro-pyridin-3-yl]-phenyl}-2H-phthalazin-1-one]
IC50 [1]: 33 nM

CCNC(C)(C)c1ccc(Nc2cc(-c3cccc(-n4ncc5cc(C(C)(C)C)cc(F)c5c4=O)c3CO)cn(C)c2=O)nc1 [Example 260, 6-tert-Butyl-2-(3-{5-[5-(1-ethylamino-1-methyl-ethyl)-pyridin-2-ylamino]-1-methyl-6-oxo-1,6-dihydro-pyridin-3-yl}-2-hydroxymethyl-phenyl)-8-fluoro-2H-phthalazin-1-one]
melting point: 195 to 200 °C

CCNCc1ccc(Nc2cc(-c3cccc(-n4ncc5cc(C(C)(C)C)cc(F)c5c4=O)c3CO)cn(C)c2=O)nc1 [Example I-42, 6-tert-Butyl-2-{3-[5-(5-ethylaminomethyl-pyridin-2-ylamino)-1-methyl-6-oxo-1,6-dihydro-pyridin-3-yl]-2-hydroxymethyl-phenyl}-8-fluoro-2H-phthalazin-1-one]
IC50 [1]: 6 nM

Cn1cc(-c2cccc(-n3ccc4cc(C5(C)CC5)cc(F)c4c3=O)c2CO)cc(Nc2ccc(C(=O)N3CCOCC3)cn2)c1=O [Example I-60, 8-Fluoro-2-(2-hydroxymethyl-3-{1-methyl-5-[5-(morpholine-4-carbonyl)-pyridin-2-ylamino]-6-oxo-1,6-dihydro-pyridin-3-yl}-phenyl)-6-(1-methyl-cyclopropyl)-2H-isoquinolin-1-one]
IC50 [1]: 16 nM

CC(O)Cn1cc(Nc2nc(-c3cccc(-n4ncc5cc(C(C)(C)C)cc(F)c5c4=O)c3CO)cn(C)c2=O)cn1 (stereo not drawn) [Example I-83, 6-tert-Butyl-8-fluoro-2-(2-hydroxymethyl-3-{6-[1-(2-hydroxy-propyl)-1H-pyrazol-4-ylamino]-4-methyl-5-oxo-4,5-dihydro-pyrazin-2-yl}-phenyl)-2H-phthalazin-1-one]
IC50 [1]: 10 nM

Cn1cc(-c2cccc(-n3ccc4cc(C5CC5)cc(F)c4c3=O)c2CO)cc(Nc2ccc(S(C)(=O)=O)cn2)c1=O [Example I-62, 6-Cyclopropyl-8-fluoro-2-{2-hydroxymethyl-3-[5-(5-methanesulfonyl-pyridin-2-ylamino)-1-methyl-6-oxo-1,6-dihydro-pyridin-3-yl]-phenyl}-2H-isoquinolin-1-one]
IC50 [1]: 92 nM
